SMILES strings stand for the structures.

The data set is described as follows: gradient 5% acetonitrile 3 min, to 50% in 2 min, to 85% in 15 min, held 3 min, 100 µL/min. The settings on record: column: Zorbax Extend-C18 2.1 x 50 mm; eluents: water / acetonitrile, 0.1% formic acid. Summed up:
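Over 3 months, pure standards in mixtures of ~100 molecules were run by HPLC coupled to a quadrupole time-of-flight mass spectrometer in positive and negative ionization mode. The column was a Zorbax Extend-C18 (2.1 × 50 mm, 1.8 μm) at 100 μL/min, eluted with water and acetonitrile each holding 0.1% formic acid, with 40 μL dead and 900 μL dwell volumes. Retention time was determined from adduct peaks chosen by software and checked manually.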
In turn, `Cc1cc(NC(=O)c2sc(-c3cn(C)c4ncccc34)nc2C)ccc1F` gave an RP-LC retention time of 979 s.

For `Cc1cc(=O)n(CC(=O)Nc2ccccc2)c(N2CCOCC2)n1`, the RP-LC retention time is 628 s.

For `CC(C)Sc1ccc(CC(=O)N2CC(c3nc(-c4ncccn4)no3)C2)cc1`, the RP-LC retention time amounted to 732 s.

Regarding `O=C(CCn1c(=O)sc2ccccc21)Nc1nc(-c2ccccc2)cs1`, the RP-LC retention time worked out at 1010 s.

As for `CCOC(=O)CNC(=O)N1CC(n2cc(COc3ccc(F)cc3)nn2)C1`, the RP-LC retention time was found to be 692 s.

The molecule `CCn1c(C(=O)NCCCN2CCCCC2C)c(N2CCCC2=O)c2cc(F)ccc21` (stereo not drawn) registered an RP-LC retention time of 654 s.

As for `Cc1cc(N2CCN(S(=O)(=O)c3ccc(F)cc3)CC2)nc(NC2CCCCC2)n1`, the RP-LC retention time turned out to be 797 s.

Consider `O=S(=O)(c1cccc(C(F)(F)F)c1)N1CCC2(CCN(c3cccnc3)C2)C1` (stereo not drawn), for which the RP-LC retention time turned out to be 702 s.

Turning to `CSc1cccc(NC(=O)Cn2c(N3CCc4ccccc4C3)nc(C)cc2=O)c1`, the RP-LC retention time is 840 s.

On to `COc1ccccc1-c1noc(C2CCCN2C(=O)Nc2cc(C)cc(C)c2)n1` (stereo not drawn), for which the RP-LC retention time was found to be 957 s.

The molecule `Cc1cnc(-c2ccccc2)n1CCNS(=O)(=O)c1ccc2c(c1)CCC2` showed an RP-LC retention time of 689 s.

Turning to `Cn1cc(CC(=O)N2CCC(C(=O)NCC(F)(F)F)CC2)c2ccccc21`, the RP-LC retention time is 718 s.

Molecule `Cc1cc(NC(=O)C(=O)NCc2nc(-c3ccccc3)no2)no1` gave an RP-LC retention time of 742 s.

`CNC(=O)[C@@H]1CN(C(=O)c2ccoc2C)C[C@H]1c1nc(C)no1`: the RP-LC retention time was determined as 612 s.

Turning to `Cc1ccc(-n2cccc2CC(=O)NCc2ccc3c(c2)OCO3)cc1`, the RP-LC retention time came out at 946 s.

On to `Cc1cccc(S(=O)(=O)N2CCC(c3cc(=O)n4nccc4n3C)CC2)c1`, for which the RP-LC retention time was found to be 718 s.

`Cn1ncc2c3ccccc3n(CC(=O)NCCN3CCCCC3)c2c1=O` yielded an RP-LC retention time of 595 s.

`COc1ccc(NC(=O)c2c(S(=O)(=O)Nc3ccc(Cl)cc3)n[nH]c2C)cc1OC`: the RP-LC retention time turned out to be 788 s.

As to `Cc1nc(C)c(C(=O)N2CCC(Cc3noc(C4CC4)n3)C2)s1` (stereo not drawn), the RP-LC retention time was found to be 664 s.

The molecule `CCCOc1ccc(CNC(=O)c2snc(C(=O)NCc3cccc(OC)c3)c2N)cc1` displayed an RP-LC retention time of 1140 s.

`CCc1ccc(NC(=O)N2CCC(N3CCN(Cc4ccccc4)C(=O)C3=O)CC2)cc1` registered an RP-LC retention time of 789 s.

`CCOc1cccc(C2c3[nH]c4ccccc4c3CCN2C(=O)c2ccco2)c1` (stereo not drawn) yielded an RP-LC retention time of 1130 s.

On to `CCc1ccc(C(=O)N2CCC3(C2)C(=O)Nc2ccc(OC)cc23)cc1` (stereo not drawn), for which the RP-LC retention time worked out at 786 s.

In the case of `CC(C)n1nnc2cc(S(=O)(=O)N3CCCC(C(=O)N4CCCCCC4)C3)ccc21` (stereo not drawn), the RP-LC retention time was 886 s.

Molecule `CCc1nc(-c2ccc(-c3noc(CNC(=O)Cc4ccc(Cl)cc4)n3)cc2)cs1` had an RP-LC retention time of 1080 s.

Regarding `Cn1c(CNC(=O)C2CCc3nc(N4CCCC4)ncc3C2)nc2ccccc21` (stereo not drawn), the RP-LC retention time worked out at 529 s.

Turning to `CO[C@H]1CN(C(C)C)[C@H]1C1CCN(C(=O)C2CC=CC2)CC1`, the RP-LC retention time was 593 s.

Molecule `O=C(c1cn2ccccc2n1)N1CCN(c2ccc(F)cc2)CC1` showed an RP-LC retention time of 652 s.

In turn, `CC1CCN(c2nccnc2Oc2ccc(C(=O)N3CCN(c4ccccn4)CC3)cc2)CC1` had an RP-LC retention time of 711 s.

`CN(CC1CCOC1)C(=O)Nc1ccc(F)cc1` (stereo not drawn) registered an RP-LC retention time of 671 s.

For the molecule `O=C(NCc1ccc(Cl)cc1)c1nc(N2CCOCC2)c2ccccc2n1`, the RP-LC retention time is 721 s.

`Cc1ccc(-c2csc(Nc3c(C)n(C)n(-c4ccccc4)c3=O)n2)cc1` showed an RP-LC retention time of 788 s.

`Cc1cc(Nc2cccc(C(C)O)c2)nc(-n2cc([N+](=O)[O-])cn2)n1` (stereo not drawn) came in with an RP-LC retention time of 690 s.

Molecule `COc1ccccc1NC(=O)CSc1nc2ccccc2c(=O)n1C1CCCCC1` yielded an RP-LC retention time of 1230 s.

`CC(C)n1c(=O)sc2cc(S(=O)(=O)N3CCC(C(=O)Nc4ccc(F)cc4)CC3)ccc21` showed an RP-LC retention time of 973 s.

In turn, `COc1ccc(CSc2nc3ccccc3[nH]2)cc1` registered an RP-LC retention time of 625 s.

With `O=C(Nc1ccc(Br)cc1)N1CCC(N2CCN(Cc3ccccc3)C2=O)CC1`, the RP-LC retention time was 893 s.

Regarding `CCOc1ccc(NC(=O)c2cn(-c3cc(N4CCCCC4C)ncn3)cn2)cc1` (stereo not drawn), the RP-LC retention time was 1110 s.

The molecule `COc1ccc(NC(=O)C(C)C2CCN(C(=O)Nc3ccc(Cl)cc3)CC2)cc1` (stereo not drawn) yielded an RP-LC retention time of 854 s.

Turning to `COc1cccc(CC(=O)NC(C)C(=O)Nc2nc3ccccc3[nH]2)c1` (stereo not drawn), the RP-LC retention time turned out to be 640 s.

`Cc1cccc(C)c1NC(=O)Cn1cnc2nc(N3CCC(C(=O)NC(C)C)CC3)sc2c1=O` returned an RP-LC retention time of 666 s.

Molecule `Cc1cc(C)c(NC(=O)Cn2nc3c(N4CCCCCC4)nccn3c2=O)c(C)c1` yielded an RP-LC retention time of 757 s.

In turn, `O=C(C1CC(=O)N(C2CCCCC2)C1)N1CCC2(CC1)NCCc1c2[nH]c2ccccc12` (stereo not drawn) displayed an RP-LC retention time of 654 s.

`O=C(C1CCN(c2nc3ccc(-c4ccc(F)cc4)nc3s2)CC1)N1CCCCC1`: the RP-LC retention time worked out at 1080 s.

For the molecule `Cc1cc2c(c(=O)n(-c3ccccc3)c(=O)n2CC(=O)N(C)c2ccccc2)n1C`, the RP-LC retention time is 806 s.

In turn, `O=C(NCC1CCN(c2ncccn2)CC1)C(=O)Nc1ccon1` had an RP-LC retention time of 614 s.

`Cc1ccc(C)c(NC(=O)Cn2c(=O)n(-c3ccccc3)c3ncccc32)c1` returned an RP-LC retention time of 852 s.

Molecule `Cc1ccn2cc(-c3ccc(NC(=O)c4cccc(Cl)c4)cc3)nc2n1` yielded an RP-LC retention time of 678 s.

The molecule `O=C(NC1CCCC1)C1CCCN(c2ccc(=O)n(-c3cccc(F)c3)n2)C1` (stereo not drawn) displayed an RP-LC retention time of 784 s.

In the case of `CCOC(=O)c1cn(CC(=O)NCCC(C)C)c2nc(C)ccc2c1=O`, the RP-LC retention time was 723 s.

In the case of `CCCOc1nc2ccccc2nc1N1CCCC(C(=O)Nc2cc(C)cc(C)c2)C1` (stereo not drawn), the RP-LC retention time turned out to be 1390 s.

The molecule `COc1ccc(OC)c(-c2nnc(NC(=O)CSc3ccc(Cl)cc3)s2)c1` gave an RP-LC retention time of 947 s.

Take `O=C(Nc1ccc(C(=O)N2CCOCC2)cc1)c1cnn2c(C(F)F)cc(-c3ccccc3)nc12`: the RP-LC retention time turned out to be 892 s.

Molecule `CCN1C(=O)C(C)(C(=O)Nc2ccc(OC)c(Cl)c2)Oc2cccnc21` (stereo not drawn) showed an RP-LC retention time of 895 s.

`COc1ccc(C2(C(=O)N3CCN(C(=O)c4cc(-c5cccnc5)n[nH]4)CC3)CC2)cc1` gave an RP-LC retention time of 621 s.

Molecule `O=C(CSc1cc(-n2cccn2)ncn1)Nc1cccc(Cl)c1F` yielded an RP-LC retention time of 965 s.

`Cc1nncn1C1CN(C(=O)c2cc3ccccc3[nH]2)C1` returned an RP-LC retention time of 623 s.

`CN1Cc2ccccc2-n2ccnc2C12CCN(C(=O)Cc1cccc(F)c1)CC2` displayed an RP-LC retention time of 666 s.

For `CCN1C(=O)c2cccnc2Sc2cc(CNC(=O)c3ccc(C#N)cc3)ccc21`, the RP-LC retention time came out at 756 s.

`Cc1ccc(Nc2c(-c3ccc(N(C)C)cc3)nc3cnccn23)c(Br)c1` had an RP-LC retention time of 990 s.

Molecule `COc1cccc(S(=O)(=O)N2CCC3(CC2)N(c2ccccc2)C(=O)CS3=O)c1` (stereo not drawn) gave an RP-LC retention time of 737 s.

The molecule `CC(C)CCNS(=O)(=O)c1cccc(-c2nc(-c3ccccc3)no2)c1` registered an RP-LC retention time of 1230 s.

Molecule `O=C(Cc1ccsc1)NCc1cccnc1Oc1ccccc1` came in with an RP-LC retention time of 704 s.

Regarding `COc1cc(OC)cc(-c2noc(-c3nn(-c4ccc(C)c(C)c4)ccc3=O)n2)c1`, the RP-LC retention time is 979 s.

Molecule `CSc1ccccc1-c1nnc(NC(=O)c2cc(Cl)sc2Cl)o1` returned an RP-LC retention time of 937 s.

In the case of `O=C(Nc1ccc2c(c1)OCCO2)N1CCCC1c1nc(-c2ccc(F)cc2F)no1` (stereo not drawn), the RP-LC retention time came out at 882 s.

For the molecule `COc1ccc(N2CC(c3nc(-c4ccc(C(F)(F)F)cc4)no3)CC2=O)cc1OC` (stereo not drawn), the RP-LC retention time was 963 s.

`COc1ccc(NC(=O)Nc2nccn(-c3ccc(C)c(C)c3)c2=O)cc1OC` gave an RP-LC retention time of 913 s.

Molecule `COc1cc(NC(=O)CCSc2nc3c(=O)n(C)c(=O)n(C)c3n2C)c(OC)cc1Cl` showed an RP-LC retention time of 735 s.

Turning to `COc1ccc(F)cc1S(=O)(=O)N1C[C@@H](F)C[C@H]1C(=O)N1CCCCC1`, the RP-LC retention time came out at 769 s.

As for `CCc1nnc(-c2ccc(S(=O)(=O)N3CCC(C)CC3)o2)o1`, the RP-LC retention time was found to be 920 s.

The molecule `O=C(C1CCN(Cc2cnn(-c3ccccc3)c2-n2cccc2)CC1)N1CCN(c2ccccc2)CC1` gave an RP-LC retention time of 750 s.

`Cc1nc(-c2csc(S(=O)(=O)N3CCCC(C(=O)Nc4ccc(Cl)cc4C)C3)c2)no1` (stereo not drawn) had an RP-LC retention time of 1040 s.

`CCOC(=O)c1ccc(NC(=O)C2CCN(c3c(C(=O)N(CC)CC)cnc4snc(C)c34)CC2)cc1` returned an RP-LC retention time of 967 s.

The molecule `COC(=O)Cn1nc(-c2nc(-c3ccc(C)cc3)no2)ccc1=O` registered an RP-LC retention time of 928 s.

As for `COc1ccc(OC)c(CNC(=O)c2cn3ccccc3n2)c1`, the RP-LC retention time worked out at 665 s.

In turn, `Cc1ccc(OCC(=O)Nc2cc3c(cc2C)n(C)c(=O)n3C)cc1` registered an RP-LC retention time of 980 s.

On to `O=C(N1CCC2(CC1)CC(CCOc1ccncc1)CCO2)C1(c2ccccc2)CC1` (stereo not drawn), for which the RP-LC retention time came out at 664 s.

The values are drawn from the METLIN SMRT retention time set (Domingo-Almenara et al. 2019).
